For 49 compounds, Ki and IC50 results are on record in patent publication US6465433B1, “Boronic ester and acid compounds, synthesis and uses” (Millennium Pharmaceuticals, Inc., priority 1994, dated 2002).

Test [1] has as its target SDS-activated 20S proteasome from rabbit muscle (Oryctolagus cuniculus, UniProt G1SU71+G1T4Q9). The experiment in a line: Kinetic assay: inhibition of the 20S proteasome. It is filed as biochemical. The method, then: P, AA^1, AA^2, AA^3, and Z^1 and Z^2 represent the structures present on formula (1) or (2). The protocol for the kinetic assay described in Tables II-V is as described in Rock et al., Cell 78:761-771 (1994). In these tables, Ki values are reported, which are dissociation constants for the equilibrium that is established when enzyme and inhibitor interact to form the enzyme:inhibitor complex. The reactions were performed using SDS-activated 20S proteasome from rabbit muscle. The substrate used was Suc-LLVY-AMC.

In the next test the test system is C2C12 cells. The experiment in a line: Inhibition of protein degradation in C2C12 cells. The note with it: 35S-methionine labelled cells, percent decrease in TCA soluble radioactivity, media with 50% serum. It is filed as cell-based, mouse. The method, then: One approach to testing drug candidates for their ability to inhibit the ATP-ubiquitin-dependent degradative process is to measure proteolysis in cultured cells (Rock, et al., Cell 78:761 (1994)). For example, the degradation of long-lived intracellular proteins can be measured in mouse C2C12 myoblast cells. Cells are incubated with ^35S-methionine for 48 hours to label long-lived proteins and then chased for 2 hours with medium containing unlabeled methionine. After the chase period, the cells are incubated for 4 hours in the presence or absence of the test compound. The amount of protein degradation in the cell can be measured by quantitating the trichloroacetic acid soluble radioactivity released from the pre-labeled proteins into the growth medium (an indicator of intracellular proteolysis).
C2C12 cells (a mouse myoblast line) were labelled for 48 hrs with ^35S-methionine. The cells were then washed and preincubated for 2 hrs in the same media supplemented with 2 mM unlabelled methionine. The media was removed and replaced with a fresh aliquot of the preincubation media containing 50% serum, and a concentration of the compound to be tested. The media was then removed and made up to 10% TCA and centrifuged. The TCA soluble radioactivity was counted. Inhibition of proteolysis was calculated as the percent decrease in TCA soluble radioactivity.

Setting [2] is: Table II, SDS-activated 20S proteasome from rabbit muscle, substrate Suc-LLVY-AMC.

As for `CC(C)C[C@@H](C=O)NC(=O)[C@H](CC(C)C)NC(=O)OCc1ccccc1` [MG-105, reference compound], in test [1] (Table III, dipeptide boronic acid vs dipeptide aldehyde), the inhibition constant (Ki) turned out to be 15000 nM.
As to `CC(C)CC(NC(=O)C(CC(C)C)NC(=O)C(CC(C)C)NC(=O)OCc1ccccc1)B1OC2CC3CC(C3(C)C)C2(C)O1` (stereo not drawn) [MG-261], the Ki in test [1] (setting [2]) came to 0.032 nM.
In turn, `CC(C)CC(NC(=O)C(CC(C)C)NC(=O)OCc1ccccc1)B1OC2CC3CC(C3(C)C)C2(C)O1` (stereo not drawn) [MG-264] yielded an inhibitory constant (Ki) in test [1] (setting [2]) of 119 nM.
Consider `CC(C)C[C@H](NC(=O)[C@H](Cc1cccc2ccccc12)NC(=O)OCc1ccccc1)B(O)O` [MG-270], for which the IC50 in the test with C2C12 cells is 0.73 µM. In test [1] (setting [2]), this compound registered an inhibitory constant (Ki) of 0.083 nM.
`CC(C)CC(NC(=O)C(Cc1ccc2ccccc2c1)NC(=O)OCc1ccccc1)B(O)O` (stereo not drawn) [MG-272]: in the test with C2C12 cells, the half-inhibitory concentration (IC50) was found to be 6 µM. The compound further displayed an inhibitory constant (Ki) in test [1] (setting [2]) of 34 nM.
For the compound `CC(C)C[C@H](NC(=O)[C@H](CC(C)C)NC(=O)[C@H](CC(C)C)NC(=O)N1CCOCC1)B(O)O` [MG-278], the IC50 in the test with C2C12 cells (Mus musculus, C2C12) worked out at 7.5 µM. Moreover, the Ki in test [1] (setting [2]) came out at 0.14 nM.
For the compound `CC(C)C[C@H](NC(=O)[C@H](Cc1c[nH]cn1)NC(=O)OCc1ccccc1)B(O)O` [MG-282], in the test on C2C12 cells, the 50% inhibitory concentration (IC50) came to 64 µM. In addition, the Ki in test [1] (setting [2]) was found to be 25 nM.
In the case of `CC(=O)N[C@@H](CC(C)C)C(=O)N[C@@H](CC(C)C)C(=O)N[C@@H](CC(C)C)B(O)O` [MG-283], the half-maximal inhibitory concentration (IC50) with C2C12 cells (Mus musculus, C2C12) came out at 3 µM. The Ki in test [1] (setting [2]) was 0.46 nM.
The compound `CO[C@](C(=O)N[C@@H](CC(C)C)B(O)O)(c1ccccc1)C(F)(F)F` [MG-284] returned an inhibition constant Ki in test [1] (setting [2]) of 1200 nM.
With `CC(C)C[C@H](NC(=O)[C@H](Cc1c[nH]c2ccccc12)NC(=O)N1CCOCC1)B(O)O` [MG-285], the half-inhibitory concentration (IC50) in the test on C2C12 cells is 2.4 µM. In test [1] (setting [2]), this compound showed a Ki of 3 nM.
`CC(C)C[C@H](NC(=O)[C@H](Cc1cccc2ccccc12)NC(=O)N1CCOCC1)B1OCCNCCO1` [MG-286, Diethanolamine N-(4-Morpholine)carbonyl-β-(1-naphthyl)-L-alanine-L-leucine Boronate]: the IC50 in the test with C2C12 cells (Mus musculus, C2C12) amounted to 0.095 µM. The compound also yielded an inhibitory constant (Ki) in test [1] (setting [2]) of 0.15 nM.
`CC(C)C[C@H](NC(=O)[C@H](Cc1cccnc1)NS(C)(=O)=O)B(O)O` [MG-289]: the concentration for half-maximal inhibition (IC50) in the test on C2C12 cells amounted to 10.8 µM. Besides, affinity in test [1] (setting [2]) was put at a Ki of 6.3 nM.
Compound `CC(C)C[C@H](NC(=O)[C@H](Cc1cccc2ccccc12)NS(C)(=O)=O)B1OCCNCCO1` [MG-291] displayed a Ki in test [1] (setting [2]) of 0.28 nM.
On to `CC(C)CC(NC(=O)C(Cc1cccc2ccccc12)NC(=O)N1CCOCC1)B(O)O` (stereo not drawn) [MG-293], for which, in test [1] (setting [2]), the affinity, expressed as Ki, was 2300 nM.
Take `CC(C)C[C@H](NC(=O)[C@@H](N)Cc1cccnc1)B(O)O` [MG-294]: the Ki in test [1] (setting [2]) amounted to 152 nM.
Regarding `CC(C)C[C@H](NC(=O)[C@H](Cc1c[nH]c2ccccc12)NS(C)(=O)=O)B(O)O` [MG-295], the affinity in test [1] (setting [2]), expressed as Ki, was 5.8 nM.
For `CC(C)C[C@H](NC(=O)[C@H](Cc1cccnc1)NC(=O)N1CCOCC1)B(O)O` [MG-300], in test [1] (setting [2]), affinity was put at a Ki of 1.3 nM.
Take `CC(=O)N1Cc2ccccc2CC1C(=O)N[C@@H](CC(C)C)B(O)O` (stereo partly drawn) [MG-310, N-Acetyl-1,2,3,4-tetrahydro-3-isoquinolinecarbonyl-L-leucine Boronic Acid]: the affinity in test [1] (setting [2]) corresponds to a Ki of 90 nM.
Regarding `CC(C)C[C@H](NC(=O)CCc1ccccc1)B(O)O` [MG-313], in the test with C2C12 cells (Mus musculus, C2C12), the IC50 came to 3.5 µM.
In test [1] (setting [2]), `CB(O)[C@H](CC(C)C)NC(=O)[C@H](Cc1cccc2ccccc12)NC(=O)N1CCOCC1` [MG-317, N-(4-Morplioline)carbonyl-β-(1-naphtlyl)-L-alanine-L-leucine Methylboronic Acid] gave an inhibition constant Ki of 99 nM.
In test [1] (setting [2]), `CB(C)[C@H](CC(C)C)NC(=O)[C@H](Cc1cccc2ccccc12)NC(=O)N1CCOCC1` [MG-318, N-(4-Morpholine)carbonyl-β-(1-naphthyl)-L-alanine-L-leucine Dimethylborane] yielded an inhibition constant Ki of 640 nM.
As for `CC(=O)N[C@@H](CC(C)C)B(O)O` [MG-323], in test [1] (setting [2]), affinity was put at a Ki of 850 nM.
`CC(C)C[C@H](NC(=O)[C@@H](CC(=O)N1CCOCC1)Cc1cccc2ccccc12)B(O)O` [MG-324, N-[3-(4-Morpholine)carbonyl-2(R)-(1-naphthyl)methyl]propionyl-L-leucine Boronic Acid]: in test [1] (setting [2]), the Ki came out at 2 nM.
Same read-out and setting: the same measure for `CC(C)CC(NC(=O)C1NCCc2ccccc21)B(O)O` (stereo not drawn) [MG-337]: 230 nM.
Take `CC(C)C[C@H](NC(=O)[C@H](Cc1ccccn1)NC(=O)c1ccc2ccccc2n1)B(O)O` [MG-338]: affinity in test [1] (setting [2]) was put at a Ki of 1.4 nM.
In the case of `CC(C)CC(NC(=O)C1CCCNC1)B(O)O` (stereo not drawn) [MG-339], affinity in test [1] (setting [2]) was put at a Ki of 1600 nM.
In test [1] (setting [2]), `CC(C)C[C@H](CC(=O)NCc1ccccc1)B(O)O` [MG-342, N-Benzyl-(3R)-3-dioxyboryl-5-methylhexanamide] gave a Ki of 9700 nM.
On the same count and under the same terms, to `CC(=O)N1Cc2[nH]c3ccccc3c2C[C@H]1C(=O)N[C@@H](CC(C)C)B(O)O` [MG-344] belongs 51 nM; to `CC(C)C[C@H](NC(=O)[C@@H]1C[C@@H](O)CN1)B(O)O` [MG-348], 21 nM.
Compound `CC(C)C[C@H](NC(=O)[C@H](Cc1ccccc1)NC(=O)c1ccccc1)B(O)O` [MG-353] showed a Ki in test [1] (setting [2]) of 0.15 nM.
`CC(C)C[C@H](NC(=O)C[C@H](O)[C@H](Cc1cccc2ccccc12)NS(=O)(=O)c1cccc2cccnc12)B(O)O` [MG-354] yielded an inhibition constant (Ki) in test [1] (setting [2]) of 28 nM.
The same measure, in the same setting: the same measure for `CC(C)C[C@H](NC(=O)[C@H](Cc1ccccc1)NC(=O)OCc1ccccc1)B(O)O` [MG-356]: 0.13 nM; for `CC(C)CC(NC(=O)C1CCCCN1)B(O)O` (stereo not drawn) [MG-357]: 23 nM; for `CC(C)C[C@H](NC(=O)[C@H](Cc1ccccc1)NC(=O)c1ccoc1)B(O)O` [MG-358]: 0.17 nM.
With `CC(C)C[C@H](NC(=O)[C@H](Cc1ccccc1)NC(=O)c1cc[nH]c1)B(O)O` [MG-361], the affinity in test [1] (setting [2]) corresponds to a Ki of 0.14 nM.
With `CC(C)C[C@H](NC(=O)NCc1ccccc1)B(O)O` [MG-362], the Ki in test [1] (setting [2]) is 6400 nM.
Turning to `CC(C)C[C@H](NC(=O)[C@@H]1CCCCN1)B(O)O` [MG-366], in test [1] (setting [2]), the affinity corresponds to a Ki of 45.2 nM.
Take `CC(C)C[C@H](NC(=O)[C@H](Cc1ccccn1)NC(=O)c1cnccn1)B(O)O` [MG-368]: affinity in test [1] (setting [2]) was put at a Ki of 5.6 nM.
In turn, `CC(C)C[C@H](NC(=O)[C@@H]1CCN1)B(O)O` [MG-369] had a Ki in test [1] (setting [2]) of 24.2 nM.
The compound `CC(C)C[C@H](NC(=O)[C@H](Cc1ccccc1)NS(=O)(=O)c1cccc2cccnc12)B(O)O` [MG-380] yielded an inhibition constant Ki in test [1] (setting [2]) of 4.4 nM.
Still for that read-out and setting: to `CC(C)C[C@H](NC(=O)[C@H](Cc1ccc(F)cc1)NC(=O)c1cnccn1)B(O)O` [MG-382] belongs 0.95 nM.
The compound `CC(C)C[C@@H](NC(=O)[C@H](Cc1ccc(F)cc1)NC(=O)c1ccccn1)B(O)O` [MG-383] showed an inhibition constant Ki in test [1] (setting [2]) of 0.84 nM.
Compound `CC(C)C[C@H](NC(=O)[C@@H]1C[C@@H](OCc2ccc3ccccc3n2)CN1)B(O)O` [MG-385] had an inhibition constant (Ki) in test [1] (setting [2]) of 23 nM.
In test [1] (setting [2]), `CC(C)CC(NC(=O)C1CC2CCCCC2N1)B(O)O` (stereo not drawn) [MG-386] yielded a Ki of 92 nM.
With “N-(3-phenylpropionyl)-L-phenylalanine-L-leucine boronic acid [MG-352]”, the Ki in test [1] (setting [2]) worked out at 0.15 nM.
For “N-Methyl-N-Cbz-L-leucine-L-leucine Boronic Acid [MG-268]”, the Ki in test [1] (setting [2]) was 998 nM.
The same measure, in the same setting: the same measure for “cis-3-Phenyl-D,L-proline-L-leucine Boronic Acid Hydrochloride Salt [MG-359]”: 5.5 nM; for “trans-3-Phenyl-D,L-proline-L-leucine Boronic Acid Hydrochloride Salt [MG-363]”: 3.45 nM; for “trans-4-Phenoxy-L-proline-L-leucine Boronic Acid [MG-349]”: 18 nM.

The Ki is a measure of affinity in units of concentration, obtained from inhibition or displacement. The term IC50 denotes the point on the concentration scale where inhibition reaches its midpoint.
